A word on the Ki: it is a measure of affinity in units of concentration, obtained from inhibition or displacement.

21 compounds from patent US10214512B2, “Factor XIA inhibitors” (MERCK SHARP & DOHME CORP., priority 2015, dated 2019) can be followed below.

For test [1], the target named is purified human Factor XIa (Homo sapiens (Human), UniProt P03951). Nature of the test: Factor XIa Assay. Type of test: biochemical. As to conditions: purified human Factor XIa 40 pM; substrate Z-Gly-Pro-Arg-AFC 100 μM; 50 mM HEPES pH 7.4; read-out: Human FXIa Ki. The procedure:
(§1) The effectiveness of a compound of the present invention as an inhibitor of Coagulation Factor XIa can be determined using a relevant purified serine protease, and an appropriate synthetic substrate. The rate of hydrolysis of the chromogenic or fluorogenic substrate by the relevant serine protease was measured both in the absence and presence of compounds of the present invention. Assays were conducted at rt or at 37° C. […] A decrease in the rate of fluorescence change in the presence of inhibitor is indicative of enzyme inhibition. Such methods are known to one skilled in the art. The results of this assay are expressed as the inhibitory constant, Ki.
Factor XIa determinations were made in 50 mM HEPES buffer at pH 7.4 containing 150 mM NaCl, 5 mM CaCl2, and 0.1% PEG 8000 (polyethylene glycol; JT Baker or Fisher Scientific). Determinations were made using purified human Factor XIa at a final concentration of 40 pM (Sekisui Diagnostics) and he synthetic substrate, Z-Gly-Pro-Arg-AFC, TFA salt (Sigma #C0980) at a concentration of 100 μM.
Times required to achieve equilibration between enzyme and inhibitor were determined in control experiments. Initial velocities of product formation in the absence (Vo) or presence of inhibitor (Vi) were measured. Assuming competitive inhibition, and that unity is negligible compared Km/[S], [I]/e, and [I]/e (where [S], [I], and e respectively represent the total concentrations, of substrate, inhibitor and enzyme), the equilibrium constant (Ki) for dissociation of the inhibitor from the enzyme can be obtained from the dependence of Vo/Vi on [I] shown in the following equation.

Test [2] has as its target purified Human plasma Kallikrein (Homo sapiens (Human), UniProt P03952). Nature of the test: Kallikrein Assay. In kind it is biochemical. As to conditions: purified Human plasma Kallikrein 0.5 nM; substrate Acetyl-K-P-R-AFC; 50 mM HEPES pH 7.4; Ki from IC50 by Cheng Prusoff. The procedure:
as §1, with “Kallikrein” for “Coagulation Factor XIa”
Kallikrein determinations were made in 50 mM HEPES buffer at pH 7.4 containing 150 mM NaCl, 5 mM CaCl2, and 0.1% PEG 8000 (polyethylene glycol; Fisher Scientific). Determinations were made using purified Human plasma Kallikrein at a final concentration of 0.5 nM (Enzyme Research Laboratories) and the synthetic substrate, Acetyl-K-P-R-AFC (Sigma # C6608) at a concentration of […].
Times required to achieve equilibration between enzyme and inhibitor were determined in control experiments. […] IC50 was determined by inflection point from a four parameter logistic curve fit. Ki was calculated using the Cheng Prusoff equation, Ki=IC50/(1+([S]/Km)).

Sequence of purified Human plasma Kallikrein (P03952 391-638): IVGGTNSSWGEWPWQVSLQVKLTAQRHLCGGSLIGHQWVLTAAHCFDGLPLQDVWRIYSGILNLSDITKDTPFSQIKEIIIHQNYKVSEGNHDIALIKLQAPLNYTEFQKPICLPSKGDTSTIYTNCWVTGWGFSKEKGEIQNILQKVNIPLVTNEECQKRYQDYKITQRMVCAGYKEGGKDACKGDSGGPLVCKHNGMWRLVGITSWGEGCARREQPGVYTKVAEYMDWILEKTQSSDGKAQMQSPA
Sequence of purified Human plasma Kallikrein (P03952 20-390 partner): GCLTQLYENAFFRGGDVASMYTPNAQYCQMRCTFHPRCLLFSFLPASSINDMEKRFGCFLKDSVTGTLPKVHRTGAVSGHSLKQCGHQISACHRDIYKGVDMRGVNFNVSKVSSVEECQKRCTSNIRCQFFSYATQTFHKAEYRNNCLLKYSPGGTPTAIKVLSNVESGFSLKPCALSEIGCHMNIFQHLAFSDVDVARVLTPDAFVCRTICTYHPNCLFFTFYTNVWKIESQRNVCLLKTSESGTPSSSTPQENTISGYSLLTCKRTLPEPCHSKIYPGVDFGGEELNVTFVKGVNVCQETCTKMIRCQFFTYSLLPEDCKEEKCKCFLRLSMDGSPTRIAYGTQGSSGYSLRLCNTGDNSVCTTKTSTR
Sequence of purified human Factor XIa (P03951 388-625): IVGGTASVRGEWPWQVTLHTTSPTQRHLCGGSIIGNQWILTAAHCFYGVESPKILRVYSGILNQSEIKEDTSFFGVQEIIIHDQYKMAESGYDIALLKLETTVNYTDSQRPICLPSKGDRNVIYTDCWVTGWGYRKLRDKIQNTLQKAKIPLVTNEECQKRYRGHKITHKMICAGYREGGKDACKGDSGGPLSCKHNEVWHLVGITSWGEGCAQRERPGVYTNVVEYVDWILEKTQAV
Sequence of purified human Factor XIa (P03951 19-387 partner): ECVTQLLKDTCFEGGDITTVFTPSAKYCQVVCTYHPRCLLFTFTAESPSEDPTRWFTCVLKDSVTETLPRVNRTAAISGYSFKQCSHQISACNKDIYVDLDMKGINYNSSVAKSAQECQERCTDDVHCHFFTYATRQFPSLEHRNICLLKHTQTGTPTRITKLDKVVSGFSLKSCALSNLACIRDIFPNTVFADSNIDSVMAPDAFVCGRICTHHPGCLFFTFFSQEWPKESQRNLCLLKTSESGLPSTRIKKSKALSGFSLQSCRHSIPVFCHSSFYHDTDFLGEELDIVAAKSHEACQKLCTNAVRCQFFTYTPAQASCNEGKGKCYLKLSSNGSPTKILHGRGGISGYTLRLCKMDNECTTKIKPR

Consider `COC(=O)Nc1ccc2c(c1)NC(=O)CCCC[C@H](c1ccc(-c3c(C(F)(F)F)ccc(Cl)c3F)c[n+]1[O-])c1nc-2c(C)[nH]1` (single isomer, unassigned) [Example 123], for which the Ki in test [1] was determined as 0.42 nM; in test [2], 1.41 nM.

In the case of `COC(=O)Nc1ccc2c(c1)NC(=O)CCCCC(c1ccc(-c3cc(Cl)ccc3-n3cnnn3)c[n+]1[O-])c1cc(F)cc-2c1` (stereo not drawn) [Example 52, 5-(5-chloro-2-(1h-tetrazol-1-yl)phenyl)-2-(1^5-fluoro-2^4-((methoxycarbonyl)amino)-4-oxo-3-aza-1(1,3),2(1,2) -dinenzenacyclononaphane-9-yl)pyridine 1-oxide], the Ki came out at 0.32 nM in test [1] and 1.43 nM in test [2]. Take `COC(=O)Nc1ccc2c(c1)NC(=O)CCCCC(c1ccc(-c3cc(Cl)ccc3OC(F)F)c[n+]1[O-])c1nc-2c[nH]1` (single isomer, unassigned) [Example 102-a, (Z)-5-(5-Chloro-2-(difluoromethoxy)phenyl)-2-(2^4-((methoxycarbonyl)amino)-4-oxo-1^1H-3-aza-1(4,2)-imidazola-2(1,2) -benzenacyclononaphane-9-yl)pyridine 1-oxide]: the Ki in test [1] came out at 0.14 nM; in test [2], 0.43 nM. Taken in the same sequence, the figures for `COC(=O)Nc1ccc2c(c1)NC(=O)CCCCC(c1ccc(-c3cc(Cl)ccc3-n3cnnn3)cn1)c1cc-2c(F)cn1` (stereo not drawn) [Example 61, methyl (9-(5-(5-chloro-2-(1h-tetrazol-1-yl)phenyl)pyridin-2-yl)-1^5-fluoro-4-oxo-3-aza-1(4,2)-pyridina-2(1,2)-benzenacyclononaphane-2^4-yl)carbamate] were 1.4 nM and 26 nM.

As to `Cc1[nH]c2nc1-c1cc(F)ccc1NC(=O)CCCC[C@@H]2c1ccc(-c2cc(F)ccc2-n2cnnn2)c[n+]1[O-]` (single isomer, unassigned) [Example 142], the Ki in test [1] is 0.47 nM; in test [2], 56.7 nM.

For the compound `CC1CCCC(c2ccc(-c3c(-n4cnnn4)ccc(Cl)c3F)c[n+]2[O-])c2cccc(c2)-c2cc(F)ccc2NC1=O` (stereo not drawn) [Example 8, 5,5-(3-chloro-2-fluoro-6-(1h-tetrazol-1-yl)phenyl)-2-(2^5-fluoro-5-methyl-4-oxo-3-aza-1(1,3),2(1,2)-dibenzenacyclononaphane-9-yl)pyridine 1-oxide], the inhibition constant Ki in test [1] was 0.41 nM; in test [2] it was 1.94 nM.

As to `O=C1CCCCC(c2ccc(-c3c(-n4cnnn4)ccc(Cl)c3F)c[n+]2[O-])c2c[nH]c(n2)-c2cc(F)ccc2N1` (racemic) [Example 161, (Z)-5-(3-chloro-2-fluoro-6-(1H-tetrazol-1-yl)phenyl)-2-(2^5-fluoro-4-oxo-1^1H-3-aza-1(2,4)-imidazola-2(1,2)-benzenacyclononaphane-9-yl)pyridine 1-oxide], the Ki in test [1] is 0.55 nM; in test [2], 1.35 nM.

As to `O=C1CCCC[C@H](c2ccc(-c3c(F)ccc(Cl)c3F)c[n+]2[O-])c2cccc(c2)-c2ccc(Nc3cccnc3)cc2N1` [Example 47, 5-(3-chloro-2,6-difluorophenyl)-2-(4-oxo-2^4-(pyridin-3-ylamino)-3-aza-1(1,3),2(1,2)-dinenzenacyclononaphane-9-yl)pyridine 1-oxide], the inhibitory constant (Ki) in test [1] is 1.89 nM; in test [2] it was 5.01 nM.

`CCc1[nH]c2nc1-c1ccc(NC(=O)OC)cc1NC(=O)CCCCC2c1ccc(-c2c(F)ccc(Cl)c2F)c[n+]1[O-]` (single isomer, unassigned) [Example 112-a, (Z)-5-(3-Chloro-2,6-difluorophenyl)-2-(1^5-ethyl-2^4-((Methoxycarbonyl)amino)-4-oxo-1^1H-3-AZA-1(4,2)-imidazola-2(1,2) -benzenacyclononaphane-9-yl)pyridine 1-oxide]: the Ki is 0.13 nM in test [1] and 0.26 nM in test [2]. Taken in the same sequence, the figures for `COC(=O)Nc1ccc2c(c1)NC(=O)CCCC[C@H](c1ccc(-c3cc(Cl)ccc3-n3cc(Cl)nn3)c[n+]1[O-])c1cccc-2c1` (single isomer, unassigned) [Example 37] were 0.13 nM and 0.36 nM. For “2-(2^5-carboxy-4-oxo-3-aza- 1(1,3),2(1,2)- dibenzenacyclononaphane-9-yl)-5- (3-chloro-2,6-difluorophenyl)pyridine 1-oxide [Example 9]”, the Ki in test [1] is 13.6 nM; in test [2] it was 379 nM. The corresponding values for `O=C1CCCC[C@H](c2ccc(-c3c(F)ccc(Cl)c3F)c[n+]2[O-])c2cccc(c2)-c2ccc(Nc3ncccn3)cc2N1` [Example 48, (S)-5-(3-chloro-2,6-difluorophenyl)-2-(4-oxo-2^4-(pyrimidin-2-YLAMINO)-3-AZA-1 (1,3),2(1,2)-dinenzenacyclononaphane-9-yl)pyridine 1-oxide] are 2.1 nM and 1.76 nM. On to `C[C@@H]1CCC[C@@H](c2ccc(-c3cc(Cl)ccc3-n3cnnn3)c[n+]2[O-])c2cccc(c2)-c2cc(F)ccc2NC1=O` [Example 3-a, 5-(5-chloro-2-(1H-tetrazol-1-yl)phenyl)-2-((5R,9R)-2^5-fluoro-5-methyl-4-oxo-3-aza-1(1,3),2(1,2)-dibenzenacyclononaphane-9-yl)pyridine 1-oxide], for which the Ki in test [1] turned out to be 27.7 nM; in test [2], 79.8 nM.

Take `COC(=O)Nc1ccc2c(c1)NC(=O)C(C)(C)CCC[C@H](c1ccc(-c3c(F)cccc3OC(F)F)c[n+]1[O-])c1nc-2c(C)[nH]1` (single isomer, unassigned) [Example 147]: the Ki worked out at 0.22 nM in test [1] and 3.08 nM in test [2]. The corresponding values for `COC(=O)Nc1ccc2c(c1)NC(=O)CCCCC(c1ccc(-c3c(F)cccc3OC(F)F)c[n+]1[O-])c1nc-2c[nH]1` (single isomer, unassigned) [Example 101-a, (Z)-5-(2-(Difluoromethoxy)-6-fluorophenyl)-2-(2^4-((methoxycarbonyl)amino)-4-oxo-1^1H-3-aza-1(4,2)-imidazola-2(1,2) -benzenacyclononaphane-9-yl)pyridine 1-oxide] are 0.34 nM and 3.9 nM. Taken in the same sequence, the figures for `O=C1CCCCC(c2ccc(-c3cc(Cl)ccc3-n3cc(C(F)(F)F)nn3)c[n+]2[O-])c2cccc(c2)-c2c(cnn2C(F)F)N1` (stereo not drawn) [Example 165, 5-(5-chloro-2-(4-(trifluoromethyl)-1H-1,2,3-triazol-1-yl)phenyl)-2-(1^1-(difluoromethyl)-8-oxo-1^1H-9-aza-1(5,4)-pyrazola-2(1,3) -benzenacyclononaphane-3-Yl)pyridine 1-oxide] were 0.21 nM and 5.76 nM. The corresponding values for `COC(=O)Nc1ccc2c(c1)NC(=O)CCCCC(c1ccc(-c3cc(Cl)ccc3-n3cnnn3)cn1)c1cc-2ncn1` (stereo not drawn) [Example 65, methyl (9-(5-(5-chloro-2-(1h-tetrazol-1-yl)phenyl)pyridin-2-yl)-4-oxo-3-aza-1(4,6)-pyrimidina-2(1,2)-benzenacyclononaphane-2^4-yl)carbamate] are 2.9 nM and 6 nM.

`COC(=O)Nc1ccc2c(c1)NC(=O)[C@@H](C)CCC[C@H](c1ccc(-c3c(F)cccc3F)c[n+]1[O-])c1nc-2c(C)[nH]1` (single isomer, unassigned) [Example 143-a]: the Ki came out at 0.33 nM in test [1] and 1.61 nM in test [2]. In test [2], `COC(=O)Nc1ccc2c(c1)NC(=O)[C@@H](C)CCC[C@@H](c1ccc(-c3c(OC(F)F)ccc(F)c3F)c[n+]1[O-])c1nc-2c(C)[nH]1` (single isomer, unassigned) [Example 150-b] yielded a Ki of 31.2 nM.

`COC(=O)Nc1ccc2c(c1)NC(=O)CC[C@H](C)C[C@H](c1ccc(-c3c(F)cccc3OC(F)F)c[n+]1[O-])c1nc-2c(C)[nH]1` (single isomer, unassigned) [Example 152-b]: in test [2], affinity was put at a Ki of 114 nM. On the same count and under the same terms, the value for `COC(=O)Nc1ccc2c(c1)NC(=O)[C@@H](C)CCC[C@H](c1ccc(-c3cc(Cl)ccc3OC(F)(F)F)c[n+]1[O-])c1cccc-2c1` (single isomer, unassigned) [Example 77-b] was 17.3 nM.
